Experimental data reported in patent publication US20240399118A1, “INTRALUMINAL LOCAL DRUG DELIVERY” (Isola Therapeutics, Inc., priority 2023, published 2024).
Like-named read-outs stand apart in the source and are kept apart here. Blank lines part the entries; values can stand above or below the molecule they belong to.

Key:
[1] = cited from earlier work
[2] = tested on: porcine model; conditions: pig, in vivo
Method: Animals tested were of the porcine species from the breed Yorkshire Cross. The animals underwent surgery to place two (2) CVL catheters, 1 for infusion and 1 for plasma collection. Each animal received ˜1 L of lavage solution. The animals were allowed to recover and stabilize. Once the animals were awake and mobile, the animals were infused with 50 mcg/mL for 30 minutes.

[3] = Plasma concentration of diclofenac after local lavage delivery to the lungs in a porcine model (LC/MS); format: in vivo, porcine (Yorkshire Cross)
Excerpt: Each animal received ˜1 L of lavage solution. The animals were allowed to recover and stabilize. […] Spectra were compared to the validated protocol and standard curve generated for the study.

Structure (SMILES): C[C@@H]1C[C@H]2[C@@H]3CCC4=CC(=O)C=C[C@]4(C)[C@@]3(F)[C@@H](O)C[C@]2(C)[C@@]1(O)C(=O)COP(=O)([O-])[O-].[Na+].[Na+] [Dexamethasone sodium phosphate, disodium; [2-[(8S,9R,10S,11S,13S,14S,16R, 17R)-9-fluoro-11,17-dihydroxy-10,13,16-trimethyl-3-oxo-6,7,8, 11, 12, 14, 15, 16-octahydrocyclopenta[a]phenanthren-17-yl]-2-oxoethyl] phosphate]
solubility in water ([1]; water): 100 to 1000 mg/mL
solubility in water (in words) ([1]; water): freely soluble
tolerability [2]: well tolerated

Structure (SMILES): O=C(O)Cc1ccccc1Nc1c(Cl)cccc1Cl [Diclofenac sodium]
solubility in water (in words) ([1]; water at 25° C.): sparingly soluble

time of peak plasma concentration post-lung infusion ([3]; local lung delivery at 50 mcg/mL): 5 min
plasma Cmax as percent of the plasma Cmax resulting from systemic administration ([3]; local vs systemic administration): less than 0.05%
Plasma Concentration (ng/mL) by Time (min): 5 min ([3]; swine, local lung administration 50 mcg/mL, 5 min, animal 24P0133): 3430 ng/mL
Plasma Concentration (ng/mL) by Time (min): 15 min ([3]; swine, local lung administration 50 mcg/mL, 15 min, animal 24P0133): 3050 ng/mL
Plasma Concentration (ng/mL) by Time (min): 30 min ([3]; swine, local lung administration 50 mcg/mL, 30 min, animal 24P0133): 2410 ng/mL
Plasma Concentration (ng/mL) by Time (min): 0 min ([3]; swine, local lung administration 50 mcg/mL, ~1 L lavage solution, 0 min (baseline), animal 24P0133): BLQ
clinical observations [2]: no abnormal clinical observations
Structure (SMILES): O=C(O)Cc1ccccc1Nc1c(Cl)cccc1Cl [Diclofenac, 2-[2-(2,6-dichloroanilino)phenyl]acetic acid]
adverse events [2]: did not have any adverse events
lung tissue damage [2]: no signs of lung tissue damage
